Data taken from patent US7223784B2, “Compounds for the modulation of the glycolysis enzyme and/or transaminase complex” (ScheBo® Biotech AG, priority 2002, dated 2007).

Key:
[1] = target: cytosolic isoenzyme of the GOT (Homo sapiens, UniProt P17174); assay: Effect on activity of GOT isoenzymes in vitro (isoenzymes dissociated by isoelectric focusing), cytosolic isoenzyme; format: biochemical; conditions: FIG. 1b
Source text: (§1) In FIG. 1b is shown the effect of […] (AOA) and hydroxylamine (HA) on the activity of the cytosolic and mitochondrial isoenzyme of the GOT in vitro. The isoenzymes of the GOT were dissociated by an isoelectric focusing. […] The inhibition of the GOT leads to an inhibition of the malate-aspartate shuttle. As a consequence, NAD cannot be recycled, and the glycolysis is inhibited at the stage of the GAPDH.

[2] = target: T1, mitochondrial isoenzyme of the GOT (Homo sapiens, UniProt P00505); assay: Effect on activity of GOT isoenzymes in vitro (isoenzymes dissociated by isoelectric focusing), mitochondrial isoenzyme; format: biochemical; conditions: FIG. 1b
T1 sequence (P00505 30-430): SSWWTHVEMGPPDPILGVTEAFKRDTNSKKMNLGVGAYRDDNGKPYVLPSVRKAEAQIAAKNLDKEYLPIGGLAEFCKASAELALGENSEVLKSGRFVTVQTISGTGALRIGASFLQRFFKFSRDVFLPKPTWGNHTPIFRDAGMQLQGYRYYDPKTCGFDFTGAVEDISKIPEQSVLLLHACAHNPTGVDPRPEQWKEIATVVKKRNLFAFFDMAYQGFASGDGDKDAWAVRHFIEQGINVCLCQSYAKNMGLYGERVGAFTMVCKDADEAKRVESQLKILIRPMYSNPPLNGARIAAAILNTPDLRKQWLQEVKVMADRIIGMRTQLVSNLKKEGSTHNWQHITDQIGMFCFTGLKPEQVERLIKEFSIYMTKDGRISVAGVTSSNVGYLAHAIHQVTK
Source text: as §1

Chain of cytosolic isoenzyme of the GOT (P17174 whole entry): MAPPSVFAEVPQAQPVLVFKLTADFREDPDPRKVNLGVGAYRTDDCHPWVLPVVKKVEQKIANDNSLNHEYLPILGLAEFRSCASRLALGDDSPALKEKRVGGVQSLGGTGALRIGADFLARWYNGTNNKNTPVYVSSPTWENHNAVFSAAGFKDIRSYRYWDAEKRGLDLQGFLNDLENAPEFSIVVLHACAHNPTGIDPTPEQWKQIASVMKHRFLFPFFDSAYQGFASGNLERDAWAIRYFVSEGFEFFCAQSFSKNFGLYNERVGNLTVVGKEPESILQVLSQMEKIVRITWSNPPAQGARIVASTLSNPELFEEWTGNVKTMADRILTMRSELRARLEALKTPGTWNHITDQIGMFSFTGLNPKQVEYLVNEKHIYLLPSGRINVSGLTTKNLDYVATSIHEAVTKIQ

SMILES | effect on the activity of the cytosolic isoenzyme of the GOT [1] | effect on the activity of the mitochondrial isoenzyme of the GOT [2]
NOCC(=O)O [aminooxyacetate, (aminooxy)acetic acid] | mainly inhibits the cytosolic isoenzyme | 
NO [hydroxylamine] | inhibits both isoenzymes | inhibits both isoenzymes
